# Results: ChEMBL document CHEMBL3885861, “Open TG-GATES”
# Organism: Rattus norvegicus
# Assay: Open TG-GATES - Regimen: Daily Repeat
# Format: toxicity, organism-based, Sprague-Dawley
# Design: regimen Daily Repeat, gender Male, age 6 weeks
# Details: in vivo, po, 0 mg/kg, route gavage, dose level Control; for APTT / Bas / Eos / Fbg / Hb / Ht / Lym / MCH / MCHC / MCV / Mono / Neu / PT / Plat / RBC / Ret / WBC: tissue Blood; for KIDNEY_L / KIDNEY_R / KIDNEY_TOTAL: tissue Kidney; for LIVER: tissue Liver; for A/G / ALP / ALT / AST / BUN / CRE / Ca / Cl / DBIL / GLC / IP / K / LDH / Na / PL / RALB / TBIL / TC / TG / TP / gamma-GTP: tissue Plasma
compound,measurement,setting,value
O=C(OC[C@H]1O[C@@H](OC(=O)c2cc(O)c(O)c(OC(=O)c3cc(O)c(O)c(O)c3)c2)[C@H](OC(=O)c2cc(O)c(O)c(OC(=O)c3cc(O)c(O)c(O)c3)c2)[C@@H](OC(=O)c2cc(O)c(O)c(OC(=O)c3cc(O)c(O)c(O)c3)c2)[C@@H]1OC(=O)c1cc(O)c(O)c(OC(=O)c2cc(O)c(O)c(O)c2)c1)c1cc(O)c(O)c(OC(=O)c2cc(O)c(O)c(O)c2)c1 [TANNIC ACID],TERMINAL_BW,"72 h, time 3 day",216 g
same,APTT,"72 h, time 3 day",17.1 s
same,Bas,"72 h, time 3 day",0%
same,Eos,"72 h, time 3 day",1%
same,Fbg,"72 h, time 3 day",245.4 mg/dL
same,Hb,"72 h, time 3 day",13.2 g/dL
same,Ht,"72 h, time 3 day",39.3%
same,Lym,"72 h, time 3 day",77.6%
same,MCH,"72 h, time 3 day",21.8 pg
same,MCHC,"72 h, time 3 day",33.4%
same,MCV,"72 h, time 3 day",65.2 fL
same,Mono,"72 h, time 3 day",6.4%
same,Neu,"72 h, time 3 day",15%
same,PT,"72 h, time 3 day",11.7 s
same,Plat,"72 h, time 3 day",118.4 x10_4/uL
same,RBC,"72 h, time 3 day",603.8 x10_4/ul
same,Ret,"72 h, time 3 day",8.3%
same,WBC,"72 h, time 3 day",101.4 x10_2/uL
same,KIDNEY_L,"72 h, time 3 day",0.9 g
same,KIDNEY_R,"72 h, time 3 day",1 g
same,KIDNEY_TOTAL,"72 h, time 3 day",1.9 g
same,LIVER,"72 h, time 3 day",10.5 g
same,A/G,"72 h, time 3 day",2.1
same,ALP,"72 h, time 3 day",883.4 IU/L
same,ALT,"72 h, time 3 day",36.2 IU/L
same,AST,"72 h, time 3 day",62.2 IU/L
same,BUN,"72 h, time 3 day",18 mg/dL
same,CRE,"72 h, time 3 day",0.5 mg/dL
same,Ca,"72 h, time 3 day",10.9 mg/dL
same,Cl,"72 h, time 3 day",104.2 meq/L
same,DBIL,"72 h, time 3 day",0 mg/dL
same,GLC,"72 h, time 3 day",202 mg/dL
same,IP,"72 h, time 3 day",8 mg/dL
same,K,"72 h, time 3 day",4.8 meq/L
same,LDH,"72 h, time 3 day",62.4 IU/L
same,Na,"72 h, time 3 day",139.6 meq/L
same,PL,"72 h, time 3 day",146.8 mg/dL
same,RALB,"72 h, time 3 day",3.8 g/dL
same,TBIL,"72 h, time 3 day",0.3 mg/dL
same,TC,"72 h, time 3 day",75.2 mg/dL
same,TG,"72 h, time 3 day",112.8 mg/dL
same,TP,"72 h, time 3 day",5.7 g/dL
same,gamma-GTP,"72 h, time 3 day",1 IU/L
same,TERMINAL_BW,"[…], time 7 day",253.1 g
same,TERMINAL_BW,"[…], time 14 day",306.2 g
same,TERMINAL_BW,"[…], time 28 day",398.3 g
same,APTT,"[…], time 7 day",16.7 s
same,Bas,"[…], time 7 day",0%
same,Eos,"[…], time 7 day",1%
same,Fbg,"[…], time 7 day",219.4 mg/dL
same,Hb,"[…], time 7 day",12.8 g/dL
same,Ht,"[…], time 7 day",38.2%
same,Lym,"[…], time 7 day",77.8%
same,MCH,"[…], time 7 day",21.4 pg
same,MCHC,"[…], time 7 day",33.5%
same,MCV,"[…], time 7 day",63.9 fL
same,Mono,"[…], time 7 day",6.8%
same,Neu,"[…], time 7 day",14.4%
same,PT,"[…], time 7 day",11.1 s
same,Plat,"[…], time 7 day",101 x10_4/uL
same,RBC,"[…], time 7 day",598 x10_4/ul
same,Ret,"[…], time 7 day",6.8%
same,WBC,"[…], time 7 day",131.8 x10_2/uL
same,APTT,"[…], time 14 day",16 s
same,Bas,"[…], time 14 day",0%
same,Eos,"[…], time 14 day",1.2%
same,Fbg,"[…], time 14 day",251.8 mg/dL
same,Hb,"[…], time 14 day",13.9 g/dL
same,Ht,"[…], time 14 day",41.6%
same,Lym,"[…], time 14 day",78%
same,MCH,"[…], time 14 day",20.7 pg
same,MCHC,"[…], time 14 day",33.4%
same,MCV,"[…], time 14 day",62.1 fL
same,Mono,"[…], time 14 day",7%
same,Neu,"[…], time 14 day",14%
same,PT,"[…], time 14 day",11.5 s
same,Plat,"[…], time 14 day",125.4 x10_4/uL
same,RBC,"[…], time 14 day",669.8 x10_4/ul
same,Ret,"[…], time 14 day",5.3%
same,WBC,"[…], time 14 day",128.6 x10_2/uL
same,APTT,"[…], time 28 day",17.3 s
same,Bas,"[…], time 28 day",0%
same,Eos,"[…], time 28 day",1%
same,Fbg,"[…], time 28 day",229 mg/dL
same,Hb,"[…], time 28 day",14.7 g/dL
same,Ht,"[…], time 28 day",43.6%
same,Lym,"[…], time 28 day",84%
same,MCH,"[…], time 28 day",19.9 pg
same,MCHC,"[…], time 28 day",33.7%
same,MCV,"[…], time 28 day",59.2 fL
same,Mono,"[…], time 28 day",5.2%
same,Neu,"[…], time 28 day",9.8%
same,PT,"[…], time 28 day",11.8 s
same,Plat,"[…], time 28 day",112.4 x10_4/uL
same,RBC,"[…], time 28 day",738.4 x10_4/ul
same,Ret,"[…], time 28 day",2.8%
same,WBC,"[…], time 28 day",144.2 x10_2/uL
same,KIDNEY_L,"[…], time 7 day",1.1 g
same,KIDNEY_R,"[…], time 7 day",1.1 g
same,KIDNEY_TOTAL,"[…], time 7 day",2.2 g
same,KIDNEY_L,"[…], time 14 day",1.2 g
same,KIDNEY_R,"[…], time 14 day",1.2 g
same,KIDNEY_TOTAL,"[…], time 14 day",2.4 g
same,KIDNEY_L,"[…], time 28 day",1.4 g
same,KIDNEY_R,"[…], time 28 day",1.4 g
same,KIDNEY_TOTAL,"[…], time 28 day",2.7 g
same,LIVER,"[…], time 7 day",12.3 g
same,LIVER,"[…], time 14 day",14.2 g
same,LIVER,"[…], time 28 day",17.9 g
same,A/G,"[…], time 7 day",1.7
same,ALP,"[…], time 7 day",813.4 IU/L
same,ALT,"[…], time 7 day",34.4 IU/L
same,AST,"[…], time 7 day",60.6 IU/L
same,BUN,"[…], time 7 day",19 mg/dL
same,CRE,"[…], time 7 day",0.4 mg/dL
same,Ca,"[…], time 7 day",10.8 mg/dL
same,Cl,"[…], time 7 day",103.2 meq/L
same,DBIL,"[…], time 7 day",0.006 mg/dL
same,GLC,"[…], time 7 day",205.2 mg/dL
same,IP,"[…], time 7 day",8.1 mg/dL
same,K,"[…], time 7 day",4.4 meq/L
same,LDH,"[…], time 7 day",57 IU/L
same,Na,"[…], time 7 day",137.8 meq/L
same,PL,"[…], time 7 day",160.2 mg/dL
same,RALB,"[…], time 7 day",3.6 g/dL
same,TBIL,"[…], time 7 day",0.4 mg/dL
same,TC,"[…], time 7 day",85.4 mg/dL
same,TG,"[…], time 7 day",119.6 mg/dL
same,TP,"[…], time 7 day",5.7 g/dL
same,gamma-GTP,"[…], time 7 day",1 IU/L
same,A/G,"[…], time 14 day",1.8
same,ALP,"[…], time 14 day",806.2 IU/L
same,ALT,"[…], time 14 day",31.2 IU/L
same,AST,"[…], time 14 day",58.8 IU/L
same,BUN,"[…], time 14 day",18.4 mg/dL
same,CRE,"[…], time 14 day",0.6 mg/dL
same,Ca,"[…], time 14 day",10.7 mg/dL
same,Cl,"[…], time 14 day",103.8 meq/L
same,DBIL,"[…], time 14 day",0.018 mg/dL
same,GLC,"[…], time 14 day",198 mg/dL
same,IP,"[…], time 14 day",7.8 mg/dL
same,K,"[…], time 14 day",4.6 meq/L
same,LDH,"[…], time 14 day",81 IU/L
same,Na,"[…], time 14 day",139.6 meq/L
same,PL,"[…], time 14 day",140.2 mg/dL
same,RALB,"[…], time 14 day",3.8 g/dL
same,TBIL,"[…], time 14 day",0.3 mg/dL
same,TC,"[…], time 14 day",70.2 mg/dL
same,TG,"[…], time 14 day",115.2 mg/dL
same,TP,"[…], time 14 day",5.9 g/dL
same,gamma-GTP,"[…], time 14 day",1 IU/L
same,A/G,"[…], time 28 day",1.8
same,ALP,"[…], time 28 day",563.4 IU/L
same,ALT,"[…], time 28 day",29.4 IU/L
same,AST,"[…], time 28 day",56.8 IU/L
same,BUN,"[…], time 28 day",20.4 mg/dL
same,CRE,"[…], time 28 day",0.6 mg/dL
same,Ca,"[…], time 28 day",11 mg/dL
same,Cl,"[…], time 28 day",105.4 meq/L
same,DBIL,"[…], time 28 day",0.006 mg/dL
same,GLC,"[…], time 28 day",221.4 mg/dL
same,IP,"[…], time 28 day",7.1 mg/dL
same,K,"[…], time 28 day",4.4 meq/L
same,LDH,"[…], time 28 day",63.6 IU/L
same,Na,"[…], time 28 day",139.6 meq/L
same,PL,"[…], time 28 day",152.6 mg/dL
same,RALB,"[…], time 28 day",3.9 g/dL
same,TBIL,"[…], time 28 day",0.2 mg/dL
same,TC,"[…], time 28 day",73.6 mg/dL
same,TG,"[…], time 28 day",141.4 mg/dL
same,TP,"[…], time 28 day",6.2 g/dL
same,gamma-GTP,"[…], time 28 day",0.6 IU/L
